According to patent US8999944B2, “Thioredoxin interacting protein (TXNIP) as regulator of vascular function” (University of Rochester, priority 2005, dated 2015):

Test system: VCAM1
Test: TNF-induced VCAM1 expression in HUVEC (immunoblotting)
Format: cell-based, human
Conditions: for TNF-induced VCAM1 expression: inhibitor at 30 μM
Method: FIG. […] VCAM-1 expression was determined by immunoblotting from 3 independent experiments. Equal protein loading was confirmed with actin antibody.
To knockdown TXNIP, HUVEC were treated with small interference RNA (siRNA) against human TXNIP coding region. The target sequences were: 5′-AAGCCGTTAGGATCCTGGCTT (SEQ ID NO: 1) for human TXNIP and 5′-AATTCTCCGAACGTGTCACGT-3′ (SEQ ID NO: 2) for control non-silencing siRNA, respectively (Qiagen-Xeragon). HUVEC at >90% confluence in 60-mm dishes were used for transfection. […] This mixture was added to HUVEC in normal culture media (2 ml) and cells were incubated for 1.5 h. The medium was changed and cells recovered for 24 h. The transfection was repeated and after 24 h, cells were used for experiments.
I.P. and I.B. experiments were performed as described previously (Surapisitchat et al., “Fluid Shear Stress Inhibits TNF-Alpha Activation of JNK but not ERK½ or p38 in Human Umbilical Vein Endothelial Cells: Inhibitory Crosstalk Among MAPK Family Members,” Proc Natl Acad Sci USA 98:6476-6481 (2001); Liu et al., “Laminar Flow Inhibits TNF-Induced ASK1 Activation by Preventing Dissociation of ASK1 From its Inhibitor 14-3-3,” J Clin Invest 107:917-923 (2001); Yamawaki et al., “Chronic Physiological Shear Stress Inhibits Tumor Necrosis Factor-Induced Proinflammatory Responses in Rabbit Aorta Perfused ex vivo,” Circulation 108:1619-1625 (2003), each of which is hereby incorporated by reference in its entirety). The resulting autoradiograms were analyzed with NIH Image 1.60. Experiments were performed at least three times and equal loading of protein was ensured by measuring actin expression.

| SMILES | TNF-induced VCAM1 expression | effect on VCAM1 expression (inhibitor at 10 μM, n=4) |
| --- | --- | --- |
| C[S+]([O-])c1ccc(-c2nc(-c3ccncc3)c(-c3ccc(F)cc3)[nH]2)cc1 (stereo not drawn) [SB203580] | almost completely blocked | – |
| COc1cccc(-c2cc(=O)c3ccccc3o2)c1N [PD98059] | not | – |
| Oc1c2ccccc2c2c3c(cccc13)N=N2 [SP600125] | – | no effect |
